Assay results: patent publication US7608603B2, “Substituted pyrazolo[3,4-D]pyrimidines as p38 MAP kinase inhibitors” (Roche Palo Alto LLC, priority 2005, dated 2009)
Where a name gives a salt, the structure may show the parent alone.

Legend:
[1] = Pharmacokinetic parameters in rats after oral administration of the phosphate prodrug (Example 6); assay type: in vivo; conditions: for Cmax / AUC: male, Crl:WI(GLx/BRL/Han)IGS BR (Hanover-Wistar), po, rat plasma; for Cmax: phosphate prodrug given orally (gavage, aqueous suspension)
From the text: Male Crl:WI(GLx/BRL/Han)IGS BR (Hanover-Wistar) rats weighing 240-260 g were cannulated. Groups of three rats were used for each dose level of an experimental compound. One additional non-cannulated animal was included as vehicle control. Animals were allowed normal access to food and water throughout the experiment. The test substance phosphoric acid mono-{2-[3-(2-chloro-phenyl)-6-(2,4-difluoro-phenoxy)-1H-pyrazolo[3,4-d]pyrimidin-4-ylamino]-1-methyl-ethyl}ester was formulated as an aqueous suspension and a dose of 3 or 30 mg/kg (in 1-[3-(2-chloro-phenyl)-6-(2,4-difluoro-phenoxy)-1H-pyrazolo[3,4-d]pyrimidin-4-ylamino]-propan-2-ol equivalent) was administered orally through gavage. A blood sample (0.3 mL) was collected from the each treated rat at 0 (predose), 0.083, 0.25, 1, 2, 4, 6, and 8 hr after dose via the jugular cannula. At 24 hr after dosing, blood was collected from each treated rat via cardiac puncture. Blood was also collected from the untreated animal at 24 hr via cardiac puncture. Lithium heparin was added to the samples which were stored on ice during sampling procedure. The samples were spun in a refrigerated centrifuge at 4° C. as soon as possible and the plasma samples were stored −20° C. immediately after centrifugation and until analysis. The concentration of test compound was determined by HPLC-MS/MS. […] The prodrug phosphoric acid mono-{2-[3-(2-chloro-phenyl)-6-(2,4-difluoro-phenoxy)-1H-pyrazolo[3,4-d]pyrimidin-4-ylamino]-1-methyl-ethyl}ester was not detected in the rat plasma (at quantification limit of 0.0005 μg/mL) with the 3-mg/kg dose.

[2] = Pharmacokinetic parameters in rats after oral administration of the succinate prodrug (Example 7); assay type: in vivo; conditions: male, Crl:WI(GLx/BRL/Han)IGS BR (Hanover-Wistar), rat plasma; for Cmax: succinate prodrug given orally (gavage, aqueous suspension); for AUC: succinate prodrug given orally
Experimental: Male Crl:WI(GLx/BRL/Han)IGS BR (Hanover-Wistar) rats weighing 240-260 g were cannulated. Groups of three rats were used for each dose level of an experimental compound. The test substance succinic acid mono-[3-(2-chloro-phenyl)-6-(2,4-difluoro-phenoxy)-4-(2-hydroxy-2-methyl-propylamino)-pyrazolo[3,4-d]pyrimidin-1-ylmethyl]ester was formulated as an aqueous suspension, and a dose of 3 or 10 mg/kg (in 1-[3-(2-Chloro-phenyl)-6-(2,4-difluoro-phenoxy)-1H-pyrazolo[3,4-d]pyrimidin-4-ylamino]-2-methyl-propan-2-ol equivalent) was administered orally through gavage. A blood sample (0.3 mL) was collected from the each treated rat at 0 (predose), 0.083, 0.25, 1, 2, 4, 6, and 8 h after dose via the jugular cannula. At 24 h after dosing, blood was collected from each treated rat via cardiac puncture. Lithium heparin was added to the samples which were stored on ice during sampling procedure. The samples were spun in a refrigerated centrifuge at 4° C. as soon as possible and the plasma samples were stored −20° C. immediately after centrifugation and until analysis. The concentration of test compound was determined by HPLC-MS/MS.

[3] = target: T1, p38 MAP kinase (Homo sapiens, UniProt Q16539); assay: p38 (MAP) kinase in vitro assay, transfer of γ-33P from ATP to Myelin Basic Protein; assay type: biochemical; conditions: phosphorylated recombinant p38 MAP kinase, MBP substrate
T1 construct: made in house; host or cells: E. coli (co-expressed with SEK-1 and MEKK)
T1 sequence (Q16539 whole entry): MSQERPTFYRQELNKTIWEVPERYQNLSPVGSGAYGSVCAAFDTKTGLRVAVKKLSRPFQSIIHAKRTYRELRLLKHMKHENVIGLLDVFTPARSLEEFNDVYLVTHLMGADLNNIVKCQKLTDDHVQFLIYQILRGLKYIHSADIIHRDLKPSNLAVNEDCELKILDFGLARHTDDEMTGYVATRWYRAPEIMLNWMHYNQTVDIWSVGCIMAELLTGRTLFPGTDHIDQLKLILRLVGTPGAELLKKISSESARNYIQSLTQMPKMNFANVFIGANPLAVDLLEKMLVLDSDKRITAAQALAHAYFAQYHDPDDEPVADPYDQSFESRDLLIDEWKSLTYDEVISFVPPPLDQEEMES
Experimental: The p38 MAP kinase inhibitory activity of compounds of this invention in vitro was determined by measuring the transfer of the γ-phosphate from γ-^33P-ATP by p-38 kinase to Myelin Basic Protein (MBP), using a minor modification of the method described in Ahn, et al., J. Biol. Chem. 266:4220-4227 (1991).
The phosphorylated form of the recombinant p38 MAP kinase was co-expressed with SEK-1 and MEKK in E. Coli (see, Khokhlatchev, et al., J. Biol. Chem. 272:11057-11062 (1997)) and then purified by affinity chromatography using a Nickel column.
The phosphorylated p38 MAP kinase was diluted in kinase buffer (20 mM 3-(N-morpholino)propanesulfonic acid, pH 7.2, 25 mM β-glycerol phosphate, 5 mM ethylene glycol-bis(beta-aminoethyl ether)-N,N,N′,N′-tetraacetic acid, 1 mM sodium ortho-vanadate, 1 mM dithiothreitol, 40 mM magnesium chloride). Test compound dissolved in DMSO or only DMSO (control) was added and the samples were incubated for 10 min at 30° C. The kinase reaction was initiated by the addition of a substrate cocktail containing MBP and γ-^33P-ATP. After incubating for an additional 20 min at 30° C., the reaction was terminated by adding 0.75% phosphoric acid. The phosphorylated MBP was then separated from the residual γ-^33P-ATP using a phosphocellulose membrane (Millipore, Bedfrod, Mass.) and quantitated using a scintillation counter (Packard, Meriden, Conn.).

[4] = phosphate prodrug given orally, 30 mg/kg in parent equivalent

Row | Cmax ([1]; 30 mg/kg in parent equivalent) | AUC [1, 4] | Cmax ([2]; 3 mg/kg in parent equivalent) | Cmax ([2]; 10 mg/kg in parent equivalent) | AUC ([2]; 3 mg/kg in parent equivalent) | AUC ([2]; 10 mg/kg in parent equivalent) | Structure (SMILES) | other results
1 | 9.8 µg/mL | 124 µg·h/mL |  |  |  |  | C[C@H](O)CNc1nc(Oc2ccc(F)cc2F)nc2[nH]nc(-c3ccccc3Cl)c12 [1-[3-(2-chloro-phenyl)-6-(2,4-difluoro-phenoxy)-1H-pyrazolo[3,4-d]pyrimidin-4-ylamino]-propan-2-ol] | Cmax ([1]; 3 mg/kg in parent equivalent): 1.33 µg/mL; AUC ([1]; phosphate prodrug given orally, 3 mg/kg in parent equivalent): 12.6 µg·h/mL
2 | 0.214 µg/mL | 0.188 µg·h/mL |  |  |  |  | C[C@@H](CNc1nc(Oc2ccc(F)cc2F)nc2[nH]nc(-c3ccccc3Cl)c12)OP(=O)(O)O [phosphoric acid mono-{2-[3-(2-chloro-phenyl)-6-(2,4-difluoro-phenoxy)-1H-pyrazolo[3,4-d]pyrimidin-4-ylamino]-1-methyl-ethyl}ester] | concentration in rat plasma (not detected at quantification limit) ([1]; phosphate prodrug given orally, 3 mg/kg dose): < 0.0005 µg/mL
3 |  |  | 1.83 µg/mL | 9.25 µg/mL | 6.11 µg·h/mL | 20.9 µg·h/mL | CC(C)(O)CNc1nc(Oc2ccc(F)cc2F)nc2c1c(-c1ccccc1Cl)nn2COC(=O)CCC(=O)O [Succinic acid mono-[3-(2-chloro-phenyl)-6-(2,4-difluoro-phenoxy)-4-(2-hydroxy-2-methyl-propylamino)-pyrazolo[3,4-d]pyrimidin-1-ylmethyl]ester] | 
4 |  |  |  |  |  |  | OCC(O)CNc1nc(Oc2ccc(F)cc2F)nc2[nH]nc(-c3ccccc3Cl)c12 (centres unmarked) [3-[3-(2-Chloro-phenyl)-6-(2,4-difluoro-phenoxy)-1H-pyrazolo[3,4-d]pyrimidin-4-ylamino]-propane-1,2-diol] | IC50 [3]: 4 nM
5 |  |  |  |  |  |  | C[C@@H](CNc1nc(Oc2ccc(F)cc2F)nc2[nH]nc(-c3ccccc3Cl)c12)OP(=O)(O)O (as salt: sodium) [phosphoric acid mono-{2-[3-(2-chloro-phenyl)-6-(2,4-difluoro-phenoxy)-1H-pyrazolo[3,4-d]pyrimidin-4-ylamino]-1-methyl-ethyl}ester] | melting point: > 300 °C
6 |  |  | 1.34 µg/mL | 7.05 µg/mL | 9.27 µg·h/mL | 47.4 µg·h/mL | CC(C)(O)CNc1nc(Oc2ccc(F)cc2F)nc2[nH]nc(-c3ccccc3Cl)c12 [1-[3-(2-Chloro-phenyl)-6-(2,4-difluoro-phenoxy)-1H-pyrazolo[3,4-d]pyrimidin-4-ylamino]-2-methyl-propan-2-ol] | 
